Results taken from EP0082648A2, “Cephalosporin derivatives” (IMPERIAL CHEMICAL INDUSTRIES PLC, priority 1981, dated 1983).
Converted amounts (≈) assume the structure as drawn.

What was measured:
[1] = Toxicity observation after subcutaneous administration to mice; type: in vivo; details: dose four times the minimum effective dose which protected 50% of the mice against infection with Salmonella dublin
Description: Thus the compound 7-(4-[3-(3-cyano-2-methylisothioureido)propyl]imidazol-2-yl)amino-3-(1-methyl-lH-tetrazol-5-yl)thiomethylceph-3-em-4-carboxylic acid (Example 4) was administered subcutaneously to mice at a dose four times that of the minimum effective dose which protected 50% of the mice against infection with Salmonella dublin.

[2] = tested on: Serratia marescens; assay: In vitro agar dilution MIC test, Jewell and Pearmain agar medium; type: cell-based; details: Code A16, inoculum size ~10^5 CFU
Excerpt: (§1) The results set out in the following Table are illustrative of the biological activity of one of the preferred compounds of the present invention, that of Example 4. The following results are those obtained on a standard in vitro test system using Jewell and Pearmain agar medium. The antibacterial activity is described in terms of the minimum inhibitory concentration (MIC) determined by agar - dilution technique with an inoculum size of ~10^5 CFU.

[3] = tested on: E. coli; assay: as above; type: cell-based; details: Escherichia coli, Code A8, inoculum size ~10^5 CFU
Excerpt: as §1

[4] = tested on: Strep. pyogenes; assay: as above; type: cell-based; details: Streptococcus pyogenes, Code A1, inoculum size ~10^5 CFU
Excerpt: as §1

[5] = tested on: Ps. aeruginosa; assay: as above; type: cell-based; details: Pseudomonas aeruginosa, Code A21, inoculum size ~10^5 CFU
Excerpt: as §1

[6] = tested on: Staph. aureus; assay: as above; type: cell-based; details: Staphylococcus aureus, Code A6, inoculum size ~10^5 CFU
Excerpt: as §1

[7] = tested on: Proteus mirabilis; assay: as above; type: cell-based; details: Code A18, inoculum size ~10^5 CFU
Excerpt: as §1

[8] = tested on: Salmonella dublin; assay: as above; type: cell-based; details: Salmonella enterica, Code A20, inoculum size ~10^5 CFU
Excerpt: as §1

[9] = tested on: K. aerogenes; assay: as above; type: cell-based; details: Klebsiella aerogenes, Code A10, inoculum size ~10^5 CFU
Excerpt: as §1

[10] = tested on: Ent. cloacae; assay: as above; type: cell-based; details: Enterobacter cloacae, Code A13, inoculum size ~10^5 CFU
Excerpt: as §1

With `CSC(=NC#N)NCCCc1c[nH]c(NC2C(=O)N3C(C(=O)O)=C(CSc4nnnn4C)CS[C@H]23)n1` (stereo partly shown) [Example 4, 7-(4-[3-(3-cyano-2-methylisothioureido)propyl]imidazol-2-yl)amino-3-(1-methyl-1H-tetrazol-5-yl)thiomethylceph-3-em-4-carboxylic acid] the “overt toxic symptoms or side effects” value [1] was “No overt toxic symptoms or side effects attributable to the administered compound were noted”, the MIC [2] was 4 µg/mL (≈ 7.28 µM) and the MIC [3] was 0.06 µg/mL (≈ 0.109 µM). For the same compound, the MIC [4] was 8 µg/mL (≈ 14.6 µM), the MIC [5] was > 128 µg/mL and the MIC [6] was 16 µg/mL (≈ 29.1 µM). It also gave an MIC [7] of 1 µg/mL (≈ 1.82 µM), an MIC [8] of 0.03 µg/mL (≈ 0.0546 µM) and an MIC [9] of 0.12 µg/mL (≈ 0.218 µM). For the same compound, the MIC [10] was 32 µg/mL (≈ 58.2 µM).
